Test: Stability of cannabinoid entourage and Vitamin E components of the powder concentrate by LCMSMS
Assay type: physicochemical
Conditions: powder stored at 21-25° C.
Experimental: At each time period, 0.05 g of powder was dissolved in 10 ml-15 of ethanol, diluted to fall within the analytical range, and injected into the LCMSMS for analysis.

C=C(C)[C@@H]1CCC(C)=C[C@H]1c1c(O)cc(CCC)cc1O [CBDV, cannabidivarin]
Stability of Plant-Derived Cannabinoid Compounds in Powder Concentrate (0 days): 0.050 mg/g powder | Stability of Plant-Derived Cannabinoid Compounds in Powder Concentrate (1 days): 0.051 mg/g powder | Stability of Plant-Derived Cannabinoid Compounds in Powder Concentrate (2 days): 0.051 mg/g powder | Stability of Plant-Derived Cannabinoid Compounds in Powder Concentrate (3 days): 0.048 mg/g powder | Stability of Plant-Derived Cannabinoid Compounds in Powder Concentrate (5 days): 0.050 mg/g powder | Stability of Plant-Derived Cannabinoid Compounds in Powder Concentrate (8 days): 0.051 mg/g powder | Stability of Plant-Derived Cannabinoid Compounds in Powder Concentrate (9 days): 0.049 mg/g powder | Stability of Plant-Derived Cannabinoid Compounds in Powder Concentrate (10 days): 0.050 mg/g powder | Stability of Plant-Derived Cannabinoid Compounds in Powder Concentrate (11 days): 0.051 mg/g powder | Stability of Plant-Derived Cannabinoid Compounds in Powder Concentrate (12 days): 0.051 mg/g powder | Stability of Plant-Derived Cannabinoid Compounds in Powder Concentrate (15 days): 0.050 mg/g powder | Stability of Plant-Derived Cannabinoid Compounds in Powder Concentrate (16 days): 0.049 mg/g powder | Stability of Plant-Derived Cannabinoid Compounds in Powder Concentrate (17 days): 0.051 mg/g powder | Stability of Plant-Derived Cannabinoid Compounds in Powder Concentrate (18 days): 0.051 mg/g powder | Stability of Plant-Derived Cannabinoid Compounds in Powder Concentrate (19 days): 0.048 mg/g powder | Stability of Plant-Derived Cannabinoid Compounds in Powder Concentrate (22 days): 0.049 mg/g powder | Stability of Plant-Derived Cannabinoid Compounds in Powder Concentrate (23 days): 0.050 mg/g powder | Stability of Plant-Derived Cannabinoid Compounds in Powder Concentrate (24 days): 0.051 mg/g powder | Stability of Plant-Derived Cannabinoid Compounds in Powder Concentrate (25 days): 0.052 mg/g powder | Stability of Plant-Derived Cannabinoid Compounds in Powder Concentrate (26 days): 0.050 mg/g powder | Stability of Plant-Derived Cannabinoid Compounds in Powder Concentrate (29 days): 0.049 mg/g powder | Stability of Plant-Derived Cannabinoid Compounds in Powder Concentrate (30 days): 0.051 mg/g powder | Stability of Plant-Derived Cannabinoid Compounds in Powder Concentrate (60 days): 0.050 mg/g powder | Stability of Plant-Derived Cannabinoid Compounds in Powder Concentrate (90 days): 0.050 mg/g powder | Stability of Plant-Derived Cannabinoid Compounds in Powder Concentrate (120 days): 0.050 mg/g powder | Stability of Plant-Derived Cannabinoid Compounds in Powder Concentrate (150 days): 0.051 mg/g powder | Stability of Plant-Derived Cannabinoid Compounds in Powder Concentrate (180 days): 0.050 mg/g powder | Stability of Plant-Derived Cannabinoid Compounds in Powder Concentrate (210 days): 0.049 mg/g powder | Stability of Plant-Derived Cannabinoid Compounds in Powder Concentrate (240 days): 0.052 mg/g powder | Stability of Plant-Derived Cannabinoid Compounds in Powder Concentrate (270 days): 0.051 mg/g powder | Stability of Plant-Derived Cannabinoid Compounds in Powder Concentrate (300 days): 0.049 mg/g powder | Stability of Plant-Derived Cannabinoid Compounds in Powder Concentrate (330 days): 0.052 mg/g powder | Stability of Plant-Derived Cannabinoid Compounds in Powder Concentrate (360 days): 0.050 mg/g powder | Stability of Plant-Derived Cannabinoid Compounds in Powder Concentrate (390 days): 0.049 mg/g powder | Stability of Plant-Derived Cannabinoid Compounds in Powder Concentrate (420 days): 0.051 mg/g powder | Stability of Plant-Derived Cannabinoid Compounds in Powder Concentrate (450 days): 0.049 mg/g powder | Stability of Plant-Derived Cannabinoid Compounds in Powder Concentrate (480 days): 0.051 mg/g powder | Stability of Plant-Derived Cannabinoid Compounds in Powder Concentrate (510 days): 0.049 mg/g powder | Stability of Plant-Derived Cannabinoid Compounds in Powder Concentrate (540 days): 0.052 mg/g powder | Stability of Plant-Derived Cannabinoid Compounds in Powder Concentrate (570 days): 0.048 mg/g powder

CC(=O)Oc1c(C)c(C)c2c(c1C)CCC(C)(CCC[C@H](C)CCC[C@H](C)CCCC(C)C)O2 (stereo partly drawn) [α-Tocopheryl acetate]
Stability of Vitamin Es in Powder Concentrate (0 days): 2.15 mg/g powder | Stability of Vitamin Es in Powder Concentrate (1 days): 2.19 mg/g powder | Stability of Vitamin Es in Powder Concentrate (2 days): 2.11 mg/g powder | Stability of Vitamin Es in Powder Concentrate (3 days): 2.18 mg/g powder | Stability of Vitamin Es in Powder Concentrate (5 days): 2.24 mg/g powder | Stability of Vitamin Es in Powder Concentrate (8 days): 2.23 mg/g powder | Stability of Vitamin Es in Powder Concentrate (9 days): 2.09 mg/g powder | Stability of Vitamin Es in Powder Concentrate (10 days): 2.09 mg/g powder | Stability of Vitamin Es in Powder Concentrate (11 days): 2.20 mg/g powder | Stability of Vitamin Es in Powder Concentrate (12 days): 2.17 mg/g powder | Stability of Vitamin Es in Powder Concentrate (15 days): 2.24 mg/g powder | Stability of Vitamin Es in Powder Concentrate (16 days): 2.15 mg/g powder | Stability of Vitamin Es in Powder Concentrate (17 days): 2.13 mg/g powder | Stability of Vitamin Es in Powder Concentrate (18 days): 2.10 mg/g powder | Stability of Vitamin Es in Powder Concentrate (19 days): 2.21 mg/g powder | Stability of Vitamin Es in Powder Concentrate (22 days): 2.11 mg/g powder | Stability of Vitamin Es in Powder Concentrate (23 days): 2.16 mg/g powder | Stability of Vitamin Es in Powder Concentrate (24 days): 2.09 mg/g powder | Stability of Vitamin Es in Powder Concentrate (25 days): 2.24 mg/g powder | Stability of Vitamin Es in Powder Concentrate (26 days): 2.10 mg/g powder | Stability of Vitamin Es in Powder Concentrate (29 days): 2.21 mg/g powder | Stability of Vitamin Es in Powder Concentrate (30 days): 2.08 mg/g powder | Stability of Vitamin Es in Powder Concentrate (60 days): 2.15 mg/g powder | Stability of Vitamin Es in Powder Concentrate (90 days): 2.24 mg/g powder | Stability of Vitamin Es in Powder Concentrate (120 days): 2.17 mg/g powder | Stability of Vitamin Es in Powder Concentrate (150 days): 2.18 mg/g powder | Stability of Vitamin Es in Powder Concentrate (180 days): 2.20 mg/g powder | Stability of Vitamin Es in Powder Concentrate (210 days): 2.15 mg/g powder | Stability of Vitamin Es in Powder Concentrate (240 days): 2.23 mg/g powder | Stability of Vitamin Es in Powder Concentrate (270 days): 2.13 mg/g powder | Stability of Vitamin Es in Powder Concentrate (300 days): 2.09 mg/g powder | Stability of Vitamin Es in Powder Concentrate (330 days): 2.15 mg/g powder | Stability of Vitamin Es in Powder Concentrate (360 days): 2.12 mg/g powder | Stability of Vitamin Es in Powder Concentrate (390 days): 2.21 mg/g powder | Stability of Vitamin Es in Powder Concentrate (420 days): 2.21 mg/g powder | Stability of Vitamin Es in Powder Concentrate (450 days): 2.07 mg/g powder | Stability of Vitamin Es in Powder Concentrate (480 days): 2.10 mg/g powder | Stability of Vitamin Es in Powder Concentrate (510 days): 2.15 mg/g powder | Stability of Vitamin Es in Powder Concentrate (540 days): 2.21 mg/g powder | Stability of Vitamin Es in Powder Concentrate (570 days): 2.13 mg/g powder

CCCCCc1cc(O)c(C/C=C(\C)CCC=C(C)C)c(O)c1 [CBG, cannabigerol]
Stability of Plant-Derived Cannabinoid Compounds in Powder Concentrate (0 days): 1.1 mg/g powder | Stability of Plant-Derived Cannabinoid Compounds in Powder Concentrate (1 days): 1.07 mg/g powder | Stability of Plant-Derived Cannabinoid Compounds in Powder Concentrate (2 days): 1.08 mg/g powder | Stability of Plant-Derived Cannabinoid Compounds in Powder Concentrate (3 days): 1.09 mg/g powder | Stability of Plant-Derived Cannabinoid Compounds in Powder Concentrate (5 days): 1.11 mg/g powder | Stability of Plant-Derived Cannabinoid Compounds in Powder Concentrate (8 days): 1.07 mg/g powder | Stability of Plant-Derived Cannabinoid Compounds in Powder Concentrate (9 days): 1.09 mg/g powder | Stability of Plant-Derived Cannabinoid Compounds in Powder Concentrate (10 days): 1.08 mg/g powder | Stability of Plant-Derived Cannabinoid Compounds in Powder Concentrate (11 days): 1.14 mg/g powder | Stability of Plant-Derived Cannabinoid Compounds in Powder Concentrate (12 days): 1.10 mg/g powder | Stability of Plant-Derived Cannabinoid Compounds in Powder Concentrate (15 days): 1.08 mg/g powder | Stability of Plant-Derived Cannabinoid Compounds in Powder Concentrate (16 days): 1.06 mg/g powder | Stability of Plant-Derived Cannabinoid Compounds in Powder Concentrate (17 days): 1.06 mg/g powder | Stability of Plant-Derived Cannabinoid Compounds in Powder Concentrate (18 days): 1.13 mg/g powder | Stability of Plant-Derived Cannabinoid Compounds in Powder Concentrate (19 days): 1.14 mg/g powder | Stability of Plant-Derived Cannabinoid Compounds in Powder Concentrate (22 days): 1.12 mg/g powder | Stability of Plant-Derived Cannabinoid Compounds in Powder Concentrate (23 days): 1.13 mg/g powder | Stability of Plant-Derived Cannabinoid Compounds in Powder Concentrate (24 days): 1.09 mg/g powder | Stability of Plant-Derived Cannabinoid Compounds in Powder Concentrate (25 days): 1.13 mg/g powder | Stability of Plant-Derived Cannabinoid Compounds in Powder Concentrate (26 days): 1.14 mg/g powder | Stability of Plant-Derived Cannabinoid Compounds in Powder Concentrate (29 days): 1.10 mg/g powder | Stability of Plant-Derived Cannabinoid Compounds in Powder Concentrate (30 days): 1.07 mg/g powder | Stability of Plant-Derived Cannabinoid Compounds in Powder Concentrate (60 days): 1.11 mg/g powder | Stability of Plant-Derived Cannabinoid Compounds in Powder Concentrate (90 days): 1.13 mg/g powder | Stability of Plant-Derived Cannabinoid Compounds in Powder Concentrate (120 days): 1.09 mg/g powder | Stability of Plant-Derived Cannabinoid Compounds in Powder Concentrate (150 days): 1.11 mg/g powder | Stability of Plant-Derived Cannabinoid Compounds in Powder Concentrate (180 days): 1.07 mg/g powder | Stability of Plant-Derived Cannabinoid Compounds in Powder Concentrate (210 days): 1.06 mg/g powder | Stability of Plant-Derived Cannabinoid Compounds in Powder Concentrate (240 days): 1.12 mg/g powder | Stability of Plant-Derived Cannabinoid Compounds in Powder Concentrate (270 days): 1.15 mg/g powder | Stability of Plant-Derived Cannabinoid Compounds in Powder Concentrate (300 days): 1.09 mg/g powder | Stability of Plant-Derived Cannabinoid Compounds in Powder Concentrate (330 days): 1.10 mg/g powder | Stability of Plant-Derived Cannabinoid Compounds in Powder Concentrate (360 days): 1.09 mg/g powder | Stability of Plant-Derived Cannabinoid Compounds in Powder Concentrate (390 days): 1.14 mg/g powder | Stability of Plant-Derived Cannabinoid Compounds in Powder Concentrate (420 days): 1.11 mg/g powder | Stability of Plant-Derived Cannabinoid Compounds in Powder Concentrate (450 days): 1.06 mg/g powder | Stability of Plant-Derived Cannabinoid Compounds in Powder Concentrate (480 days): 1.12 mg/g powder | Stability of Plant-Derived Cannabinoid Compounds in Powder Concentrate (510 days): 1.07 mg/g powder | Stability of Plant-Derived Cannabinoid Compounds in Powder Concentrate (540 days): 1.07 mg/g powder | Stability of Plant-Derived Cannabinoid Compounds in Powder Concentrate (570 days): 1.06 mg/g powder

— patent US20260130395A1, “Water Dispersible Botanical Compositions” (Aquila Black Limited, priority 2021, published 2026)
